# Data taken from ChEMBL document CHEMBL1770056, “2-Arylimidazo[2,1-b]benzothiazoles: a new family of amyloid binding agents with potential for PET and SPECT imaging of Alzheimer's brain” (Bioorg Med Chem Lett, 2011).
# Experiments:
# [1] = Displacement of [3H]BTA-1 from amyloid beta 1 to 40 by competitive binding assay
# [2] = Binding affinity to amyloid beta 1 to 40
Ki [1] [nM],Kd [2] [nM],SMILES
6.09,,COc1ccc2c(c1)sc1nc(-c3ccc(N[11CH3])cc3)cn12
38.1,,CNc1ccc(-c2cn3c(n2)sc2cc(F)ccc23)cc1
42.9,,CN(C)c1ccc(-c2cn3c(n2)sc2cc(F)ccc23)cc1
28.8,,Nc1ccc(-c2cn3c(n2)sc2cc(Br)ccc23)cc1
34.5,,CNc1ccc(-c2cn3c(n2)sc2cc(Br)ccc23)cc1
43.4,,CN(C)c1ccc(-c2cn3c(n2)sc2cc(Br)ccc23)cc1
41.9,,Fc1ccc2c(c1)sc1nc(-c3ccc(I)cc3)cn12
21.1,,Brc1ccc2c(c1)sc1nc(-c3ccc(I)cc3)cn12
17.7,,Cc1ccc2c(c1)sc1nc(-c3ccc(I)cc3)cn12
9.4,,COc1ccc2c(c1)sc1nc(-c3ccc(Br)cc3)cn12
26,,Cc1ccc2c(c1)sc1nc(-c3ccc(Br)cc3)cn12

# Second part, the compound before the results:
SMILES,Ki [1] [nM],Kd [2] [nM]
COc1ccc2c(c1)sc1nc(-c3ccc(N(C)C)cc3)cn12,58.6,
COc1ccc2c(c1)sc1nc(-c3ccc(N)cc3)cn12,29.8,
Nc1ccc(-c2cn3c(n2)sc2cc(F)ccc23)cc1,133,
COc1ccc2c(c1)sc1nc(-c3ccc([123I])cc3)cn12,10.9,
CN(C)c1ccc(-c2cn3cc([123I])ccc3n2)cc1,[…],10
CNc1ccc(-c2nc3ccc(O)cc3s2)cc1 [PITTSBURGH COMPOUND B UNLABELLED],4.5,
[11CH3]Nc1ccc(-c2nc3ccc(O)cc3s2)cc1 [PITTSBURGH COMPOUND B],11,10
